The melting point is the temperature of the solid-liquid transition.

Results on three compounds are retold here after US7368437B1, “Bicyclic heterocycles, processes for their preparation and their use as herbicides and pharmaceutical agents” (Bayer CropScience AG, priority 1999, dated 2008).

The structures appear in SMILES notation.

One series relates to Xanthomonas oryzae. The following applies: stated in the literature; cited from earlier work.

The compound `OC[C@H]1O[C@@H](c2n[nH]c3cncnc23)[C@H](O)[C@@H]1O` [Ib, 3-β-D-Ribofuranosyl-1H-pyrazolo[4,3-d]pyrimidine] came in with a melting point of 227 to 228 °C. Besides, the “action against Xanthomonas oryzae” value in the series with Xanthomonas oryzae is given as “fungicidal action”.

In turn, `CN(C)c1ncc2nnc([C@@H]3O[C@H](COC(=O)c4ccccc4)[C@@H](OC(=O)c4ccccc4)[C@H]3OC(=O)c3ccccc3)n2n1` [If, 6-Dimethylamino-3-(2′,3′,5′-tri-O-benzoyl-β-ribofuranosyl)-1,2,4-triazolo-[3,4-f]-1,2,4-triazine] came in with a melting point of 79 to 80 °C. As to `CN(C)c1ncc2nnc([C@@H]3O[C@H](CO)[C@@H](O)[C@H]3O)n2n1` [Ig, 6-Dimethylamino-3-β-ribofuranosyl-1,2,4-triazolo[3,4-f]-1,2,4-triazine], the melting point is 171 to 173 °C.
